Experimental data taken from patent US20260069588A1, “VEPDEGESTRANT FOR USE IN TREATING CANCER” (Arvinas Operation, Inc., priority 2022, published 2026).

Assay: Phase 1 single agent studies in Japanese and Chinese participants (C4891016, C4891018): adverse events
[1] = TEAE treatment related, 200 mg, N = 15

Excerpt: TEAE's from participants in both studies have been combined and are described below.

O=C1CC[C@H](N2Cc3cc(N4CCN(CC5CCN(c6ccc([C@@H]7c8ccc(O)cc8CC[C@@H]7c7ccccc7)cc6)CC5)CC4)ccc3C2=O)C(=O)N1 [Compound A, (S)-3-(5-(4-((1-(4-((1R,2S)-6-hydroxy-2-phenyl-1,2,3,4-tetrahydronaphthalen-1-yl)phenyl)piperidin-4-yl)methyl)piperazin-1-yl)-1-oxoisoindolin-2-yl)piperidine-2,6-dione]
participants with a TRAE (200 mg): 11 of 15 participants | participants with a TEAE (200 mg, 15 evaluable): 73.3% | participants with grade 3-4 TEAE (200 mg, 15 evaluable): 33.4% | TEAE Alanine aminotransferase increased (200 mg, N=15): 26.7% | TEAE anemia (200 mg, N=15): 40.0% | TEAE electrocardiogram QT prolonged (200 mg, N=15): 33.3% | TEAEs constipation, hyperuricemia, hypokalaemia, neutrophil count decreased, each (200 mg, N=15): 20.0% | TRAEs alanine aminotransferase increased and electrocardiogram QT prolonged, each (200 mg, N=15): 20.0% | TRAEs aspartate aminotransferase increased, constipation, hyperuricemia, neutrophil count decreased, each (200 mg, N=15): 13.3% | SAEs (3 participants, 6 Jun 2023): 3 SAEs | Abdominal discomfort, Grade 1 [1]: 1 (6.7) n (%) | Abdominal discomfort, Grade 2 [1]: 0 n (%) | Abdominal discomfort, Grade 3 [1]: 0 n (%) | Abdominal discomfort, Grade 4 [1]: 0 n (%) | Abdominal discomfort, Grade 5 [1]: 0 n (%) | Abdominal discomfort, Missing or Unknown [1]: 0 n (%) | Abdominal discomfort, Total [1]: 1 (6.7) n (%) | Alanine aminotransferase increased, Grade 1 [1]: 3 (20.0) n (%) | Alanine aminotransferase increased, Grade 2 [1]: 0 n (%) | Alanine aminotransferase increased, Grade 3 [1]: 0 n (%) | Alanine aminotransferase increased, Grade 4 [1]: 0 n (%) | Alanine aminotransferase increased, Grade 5 [1]: 0 n (%) | Alanine aminotransferase increased, Missing or Unknown [1]: 0 n (%) | Alanine aminotransferase increased, Total [1]: 3 (20.0) n (%) | Alopecia, Grade 1 [1]: 1 (6.7) n (%) | Alopecia, Grade 2 [1]: 0 n (%) | Alopecia, Grade 3 [1]: 0 n (%) | Alopecia, Grade 4 [1]: 0 n (%) | Alopecia, Grade 5 [1]: 0 n (%) | Alopecia, Missing or Unknown [1]: 0 n (%) | Alopecia, Total [1]: 1 (6.7) n (%) | Anemia, Grade 1 [1]: 0 n (%) | Anemia, Grade 2 [1]: 1 (6.7) n (%) | Anemia, Grade 3 [1]: 0 n (%) | Anemia, Grade 4 [1]: 0 n (%) | Anemia, Grade 5 [1]: 0 n (%) | Anemia, Missing or Unknown [1]: 0 n (%) | Anemia, Total [1]: 1 (6.7) n (%) | Arthralgia, Grade 1 [1]: 1 (6.7) n (%) | Arthralgia, Grade 2 [1]: 0 n (%) | Arthralgia, Grade 3 [1]: 0 n (%) | Arthralgia, Grade 4 [1]: 0 n (%) | Arthralgia, Grade 5 [1]: 0 n (%) | Arthralgia, Missing or Unknown [1]: 0 n (%) | Arthralgia, Total [1]: 1 (6.7) n (%) | Aspartate aminotransferase increased, Grade 1 [1]: 2 (13.3) n (%) | Aspartate aminotransferase increased, Grade 2 [1]: 0 n (%) | Aspartate aminotransferase increased, Grade 3 [1]: 0 n (%) | Aspartate aminotransferase increased, Grade 4 [1]: 0 n (%) | Aspartate aminotransferase increased, Grade 5 [1]: 0 n (%) | Aspartate aminotransferase increased, Missing or Unknown [1]: 0 n (%) | Aspartate aminotransferase increased, Total [1]: 2 (13.3) n (%) | Bilirubin conjugated increased, Grade 1 [1]: 0 n (%) | Bilirubin conjugated increased, Grade 2 [1]: 1 (6.7) n (%) | Bilirubin conjugated increased, Grade 3 [1]: 0 n (%) | Bilirubin conjugated increased, Grade 4 [1]: 0 n (%) | Bilirubin conjugated increased, Grade 5 [1]: 0 n (%) | Bilirubin conjugated increased, Missing or Unknown [1]: 0 n (%) | Bilirubin conjugated increased, Total [1]: 1 (6.7) n (%) | Blood and lymphatic system disorders, Grade 1 [1]: 0 n (%) | Blood and lymphatic system disorders, Grade 2 [1]: 1 (6.7) n (%) | Blood and lymphatic system disorders, Grade 3 [1]: 0 n (%) | Blood and lymphatic system disorders, Grade 4 [1]: 0 n (%) | Blood and lymphatic system disorders, Grade 5 [1]: 0 n (%) | Blood and lymphatic system disorders, Missing or Unknown [1]: 0 n (%) | Blood and lymphatic system disorders, Total [1]: 1 (6.7) n (%) | Blood bilirubin increased, Grade 1 [1]: 0 n (%) | Blood bilirubin increased, Grade 2 [1]: 1 (6.7) n (%) | Blood bilirubin increased, Grade 3 [1]: 0 n (%) | Blood bilirubin increased, Grade 4 [1]: 0 n (%) | Blood bilirubin increased, Grade 5 [1]: 0 n (%) | Blood bilirubin increased, Missing or Unknown [1]: 0 n (%) | Blood bilirubin increased, Total [1]: 1 (6.7) n (%) | Blood bilirubin unconjugated increased, Grade 1 [1]: 1 (6.7) n (%) | Blood bilirubin unconjugated increased, Grade 2 [1]: 0 n (%) | Blood bilirubin unconjugated increased, Grade 3 [1]: 0 n (%) | Blood bilirubin unconjugated increased, Grade 4 [1]: 0 n (%) | Blood bilirubin unconjugated increased, Grade 5 [1]: 0 n (%) | Blood bilirubin unconjugated increased, Missing or Unknown [1]: 0 n (%) | Blood bilirubin unconjugated increased, Total [1]: 1 (6.7) n (%) | Cardiac disorders, Grade 1 [1]: 1 (6.7) n (%) | Cardiac disorders, Grade 2 [1]: 0 n (%) | Cardiac disorders, Grade 3 [1]: 0 n (%) | Cardiac disorders, Grade 4 [1]: 0 n (%) | Cardiac disorders, Grade 5 [1]: 0 n (%) | Cardiac disorders, Missing or Unknown [1]: 0 n (%) | Cardiac disorders, Total [1]: 1 (6.7) n (%) | Constipation, Grade 1 [1]: 2 (13.3) n (%) | Constipation, Grade 2 [1]: 0 n (%) | Constipation, Grade 3 [1]: 0 n (%) | Constipation, Grade 4 [1]: 0 n (%) | Constipation, Grade 5 [1]: 0 n (%) | Constipation, Missing or Unknown [1]: 0 n (%) | Constipation, Total [1]: 2 (13.3) n (%) | Decreased appetite, Grade 1 [1]: 1 (6.7) n (%) | Decreased appetite, Grade 2 [1]: 0 n (%) | Decreased appetite, Grade 3 [1]: 0 n (%) | Decreased appetite, Grade 4 [1]: 0 n (%) | Decreased appetite, Grade 5 [1]: 0 n (%) | Decreased appetite, Missing or Unknown [1]: 0 n (%) | Decreased appetite, Total [1]: 1 (6.7) n (%) | Dizziness, Grade 1 [1]: 1 (6.7) n (%) | Dizziness, Grade 2 [1]: 0 n (%) | Dizziness, Grade 3 [1]: 0 n (%) | Dizziness, Grade 4 [1]: 0 n (%) | Dizziness, Grade 5 [1]: 0 n (%) | Dizziness, Missing or Unknown [1]: 0 n (%) | Dizziness, Total [1]: 1 (6.7) n (%) | Electrocardiogram QT prolonged, Grade 1 [1]: 2 (13.3) n (%) | Electrocardiogram QT prolonged, Grade 2 [1]: 0 n (%) | Electrocardiogram QT prolonged, Grade 3 [1]: 1 (6.7) n (%) | Electrocardiogram QT prolonged, Grade 4 [1]: 0 n (%) | Electrocardiogram QT prolonged, Grade 5 [1]: 0 n (%) | Electrocardiogram QT prolonged, Missing or Unknown [1]: 0 n (%) | Electrocardiogram QT prolonged, Total [1]: 3 (20.0) n (%) | Fatigue, Grade 1 [1]: 1 (6.7) n (%) | Fatigue, Grade 2 [1]: 0 n (%) | Fatigue, Grade 3 [1]: 0 n (%) | Fatigue, Grade 4 [1]: 0 n (%) | Fatigue, Grade 5 [1]: 0 n (%) | Fatigue, Missing or Unknown [1]: 0 n (%) | Fatigue, Total [1]: 1 (6.7) n (%) | Gamma-glutamyl transferase increased, Grade 1 [1]: 1 (6.7) n (%) | Gamma-glutamyl transferase increased, Grade 2 [1]: 0 n (%) | Gamma-glutamyl transferase increased, Grade 3 [1]: 0 n (%) | Gamma-glutamyl transferase increased, Grade 4 [1]: 0 n (%) | Gamma-glutamyl transferase increased, Grade 5 [1]: 0 n (%) | Gamma-glutamyl transferase increased, Missing or Unknown [1]: 0 n (%) | Gamma-glutamyl transferase increased, Total [1]: 1 (6.7) n (%) | Gastrointestinal disorders, Grade 1 [1]: 4 (26.7) n (%) | Gastrointestinal disorders, Grade 2 [1]: 0 n (%)
